Data: ChEMBL document CHEMBL1201862, “PubChem BioAssay data set” (2004)
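Tested at 5 concentrations; 48 h exposure; 96-well plates; endpoints linearly interpolated, else capped at highest concentration. At the GI50, growth is halved.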 Calls of active or inactive are those of the source. No stated cut-off is given here; in the data, active = GI50 up to about 1.1 µM and inactive = higher.

Experiments:
Test in all cases: NCI-60 cell line screen, 48 h
[1] = tested on: SN12C
[2] = tested on: RXF 393
[3] = tested on: SK-MEL-28
[4] = tested on: HCT-116
[5] = tested on: SF-295
[6] = tested on: PC-3
[7] = tested on: MOLT-4
[8] = tested on: SW-620
[9] = tested on: EKVX
[10] = tested on: TK-10
[11] = tested on: A549
[12] = tested on: MCF7
[13] = tested on: NCI-H460
[14] = tested on: SR
[15] = tested on: T47D
[16] = tested on: IGROV-1
[17] = tested on: HOP-92
[18] = tested on: OVCAR-4
[19] = tested on: NCI-H522

Row | Compound | GI50 [1] | GI50 [2] | GI50 [3] | GI50 [4] | GI50 [5] | GI50 [6] | GI50 [7] | GI50 [8] | GI50 [9] | GI50 [10] | GI50 [11] | GI50 [12] | GI50 [13] | GI50 [14] | GI50 [15] | GI50 [16] | GI50 [17] | GI50 [18] | GI50 [19]
1 | CN(C)/C=N\c1nncc2[nH]nnc12 | > 100 µM (inactive) | > 100 µM (inactive) | > 100 µM (inactive) | > 100 µM (inactive) | > 100 µM (inactive) | > 100 µM (inactive) | 54.3 µM (inactive) | > 100 µM (inactive) | > 100 µM (inactive) | > 100 µM (inactive) | > 100 µM (inactive) | > 100 µM (inactive) | > 100 µM (inactive) | > 100 µM (inactive) | > 100 µM (inactive) | > 100 µM (inactive) |  |  | 
2 | O=C(N/N=C/c1ccccc1O)c1ccccc1Nc1ccccc1C(=O)N/N=C/c1ccccc1O |  |  | 0.182 µM (active) | 0.198 µM (active) | 0.975 µM (active) | 13.4 µM (inactive) | 0.102 µM (active) |  | 0.398 µM (active) | 5.87 µM (inactive) | 1.62 µM (inactive) | 0.583 µM (active) | 0.371 µM (active) | 0.566 µM (active) | 0.859 µM (active) | 0.458 µM (active) | 2.26 µM (inactive) | 0.375 µM (active) | 0.277 µM (active)
3 | CCn1c2ccccc2c2cc(NC(=O)c3c(C)nc(O)nc3NCCNCCO)ccc21 | > 100 µM (inactive) | > 100 µM (inactive) | > 100 µM (inactive) | > 100 µM (inactive) | > 100 µM (inactive) | > 100 µM (inactive) | > 100 µM (inactive) | > 100 µM (inactive) | > 100 µM (inactive) | > 100 µM (inactive) | > 100 µM (inactive) | > 100 µM (inactive) | > 100 µM (inactive) |  | > 100 µM (inactive) | > 100 µM (inactive) | > 100 µM (inactive) | > 100 µM (inactive) | > 100 µM (inactive)
4 | CN1c2ccccc2S(=O)(=O)n2c(CCc3ccccc3)nnc21 | > 100 µM (inactive) | > 100 µM (inactive) | > 100 µM (inactive) | > 100 µM (inactive) | 56.2 µM (inactive) | > 100 µM (inactive) | > 100 µM (inactive) | > 100 µM (inactive) | > 100 µM (inactive) | > 100 µM (inactive) | > 100 µM (inactive) | > 100 µM (inactive) | 98.6 µM (inactive) |  | > 100 µM (inactive) | > 100 µM (inactive) | 37.8 µM (inactive) | 82 µM (inactive) | 43.9 µM (inactive)
5 | C[Si](C)(C)OC1c2[nH]c3ccccc3c2CN2C(=O)CCC12 (stereo unspecified) | > 100 µM (inactive) |  | > 100 µM (inactive) | > 100 µM (inactive) |  | > 100 µM (inactive) | > 100 µM (inactive) | > 100 µM (inactive) | > 100 µM (inactive) | > 100 µM (inactive) | > 100 µM (inactive) | > 100 µM (inactive) | > 100 µM (inactive) | > 100 µM (inactive) | > 100 µM (inactive) | > 100 µM (inactive) | > 100 µM (inactive) | > 100 µM (inactive) | > 100 µM (inactive)
6 | O=[N+]([O-])c1cccc(-c2csc(N/N=C3\NC/C(=C/c4ccc5c(c4)OCO5)S3)n2)c1 | 37.2 µM (inactive) | 22.6 µM (inactive) |  | 30.6 µM (inactive) | 35 µM (inactive) | 21.5 µM (inactive) | 34.4 µM (inactive) | 34 µM (inactive) | 9.02 µM (inactive) | 32.2 µM (inactive) | 39.4 µM (inactive) | 33.7 µM (inactive) | 33.5 µM (inactive) |  | 29.9 µM (inactive) | 21 µM (inactive) | 16.1 µM (inactive) | 27.9 µM (inactive) | 18.2 µM (inactive)
7 | CCN(CC)CCN(/C(=N/c1ccccc1)N1CCOCC1)c1ccccc1 | > 100 µM (inactive) | > 100 µM (inactive) | > 100 µM (inactive) | 9.89 µM (inactive) | > 100 µM (inactive) | > 100 µM (inactive) | > 100 µM (inactive) | > 100 µM (inactive) | > 100 µM (inactive) | > 100 µM (inactive) | > 100 µM (inactive) | 89.3 µM (inactive) | > 100 µM (inactive) | 50.6 µM (inactive) | > 100 µM (inactive) | 48.4 µM (inactive) |  | 95.7 µM (inactive) | > 100 µM (inactive)
8 | C=C(C)[C@H]1[C@@H]2OC(=O)[C@H]1[C@]1(O)C[C@H]3OC34C(=O)O[C@H]2[C@@]41C.CC(C)(O)[C@H]1[C@@H]2OC(=O)[C@H]1[C@]1(O)C[C@H]3OC34C(=O)O[C@H]2[C@@]41C (stereo partly specified) | > 100 µM (inactive) | > 100 µM (inactive) | > 100 µM (inactive) | > 100 µM (inactive) | > 100 µM (inactive) | > 100 µM (inactive) | > 100 µM (inactive) | > 100 µM (inactive) | > 100 µM (inactive) | > 100 µM (inactive) | > 100 µM (inactive) | > 100 µM (inactive) | > 100 µM (inactive) |  | > 100 µM (inactive) | > 100 µM (inactive) | > 100 µM (inactive) | > 100 µM (inactive) | > 100 µM (inactive)
9 | CCOC(=O)N1CC2(C(=O)OC)C=CC1C(C(=O)OC)C2 (stereo unspecified) | > 100 µM (inactive) | > 100 µM (inactive) | > 100 µM (inactive) | > 100 µM (inactive) | > 100 µM (inactive) | > 100 µM (inactive) | > 100 µM (inactive) | > 100 µM (inactive) | > 100 µM (inactive) | > 100 µM (inactive) | > 100 µM (inactive) | > 100 µM (inactive) | > 100 µM (inactive) | > 100 µM (inactive) | > 100 µM (inactive) | > 100 µM (inactive) |  | > 100 µM (inactive) | > 100 µM (inactive)
10 | Cc1c2c3cc(O)ccc3nc-2n(C)c2ccccc12 | 0.875 µM (active) | 1.09 µM (active) | 2.06 µM (inactive) | 0.459 µM (active) | 1.59 µM (inactive) | 1.75 µM (inactive) | 0.399 µM (active) | 0.497 µM (active) | 2.58 µM (inactive) | 2.98 µM (inactive) | 0.938 µM (active) | 2.21 µM (inactive) | 0.434 µM (active) | 0.782 µM (active) | 2.68 µM (inactive) | 2.17 µM (inactive) | 1.93 µM (inactive) |  | 
11 | O=C1C=CC(=O)c2c1ccc1c3ccccc3n(-c3ccccc3[N+](=O)[O-])c21 | 4.01 µM (inactive) | 1.62 µM (inactive) | 8.55 µM (inactive) | 2.79 µM (inactive) | 22.6 µM (inactive) | 3.65 µM (inactive) | 0.543 µM (active) | 1.98 µM (inactive) | 8.22 µM (inactive) | 2.44 µM (inactive) | 21.7 µM (inactive) | 3.3 µM (inactive) | 9.82 µM (inactive) | 0.444 µM (active) | 1.33 µM (inactive) | 1.94 µM (inactive) |  | 2.59 µM (inactive) | 1.63 µM (inactive)
